Data on one molecule can be found in patent publication US12350273B2, “Treatment of SMA” (Hoffmann-La Roche Inc., priority 2017, dated 2025).

For one experiment, the system named is Cynomolgus monkey iPSCs. Nature of the experiment: Cell cycle analysis of Cynomolgus monkey iPSCs (flow cytometry). It is filed as cell-based. Conditions: for percentage of events in G1 phase, mean / percentage of events in G2 phase, mean / percentage of events in S phase, mean: Cynomolgus monkey iPSCs, 24 h. As for the experimental part:
For the analysis of the cell cycle, monkey stem cells were detached with Accutase (Stem Cell Technologies) and plated at 15000 cells/cm2 in 6 well plates coated with Matrigel (BD Biosciences) in MT medium supplemented with 10 ng/ml ActivinA, 15 ng/ml FGF2, and 10 μM Rock inhibitor. Cells were expanded for 1 day and then synchronized by starvation for 7 h in MT medium without supplements FGF2 and ActivinA. Before flow cytometry, cells were incubated for 24 h with fresh MT medium containing supplements FGF2 and ActivinA and test items at 80 nM, 400 nM, and 2000 nM or 30 nM rapamycin as positive control to arrest cells in G1 phase. Human stem cells were detached with Accutase (Stem Cell Technologies) and plated at 40000 cells/cm2 in 6 well plates coated with Matrigel (BD Biosciences) in mTeSR1 supplemented with 10 μM Rock Inhibitor Y-27632 (Sigma-Aldrich). Cells were expanded for 3 days with daily medium change. Since human iPSCs lose their properties during starvation by growth factor withdrawal, stem cells were synchronized with 200 ng/ml Nocodazole (Sigma-Aldrich) for 5 h and washed subsequently 2 times with mTesR1 Medium. Before flow cytometry, cells were incubated for 24 h with fresh TesR1 medium containing test items at 80 nM, 400 nM, and 2000 nM or 30 nM rapamycin as positive control to arrest cells in G1 phase.
For cell cycle analysis, human iPSCs were washed with PBS, detached with Accutase (Stem Cell Technologies) and collected by centrifugation. Cells were stained for 1 h at 37° C. with 600 ul of 7 AAD/Saponin/RNAse mix ([…] 7 AAD (#559925, BD), 50 μg/ml RNase, and 0.03% Saponin dissolved in FACS buffer (PBS, 5% FBS, 10 mM Hepes)). Cynomolgus monkey iPSCs were washed with PBS, detached with Accutase (Stem Cell Technologies) and collected by centrifugation. Cells were stained for 30 min at 37° C. in 300 ul standard MT medium (with FGF2 and ActivinA) containing 1 ul Vybrant Dye Cycle Violet Stain (#V35003, 1000× stock, Invitrogen) per ml medium. Additionally 2 ul 7 AAD (50 μg/ml 7 AAD) were added without permeabilization to label dead cells; cells were incubated for 10 min at 37° C. Flow cytometry analysis was performed using a Canto II cytometer (BD Biosciences) and data were analysed with the FlowJo software.
(In general: Flow cytometry measures light scatter and fluorescence of single cells or particles in a stream.)

Experiment [1] relates to FOXM1B/C transcript variants. Nature of the experiment: FOXM1B/C mRNA expression in human iPSCs (RT-qPCR). Conditions: 24 h. The experiment is classed as cell-based. On the procedure:
FIG. 5A-FIG. 5B: Effect of RO7034067 on FOXM1 mRNA expression levels in human and Cynomolgus monkey iPSCs • Cells were treated with RO7034067 for 24 hours, and FOXM1 B/C transcript variants were analyzed by RT-PCR. Data represent means±SEM of 3 repetitions and are expressed as fold change vs. controls. IC50 values are indicated. FIG. 5A. human iPSCs. FIG. 5B. Cynomolgus monkey iPSCs
Human iPSCs (hIPS_Neo_Clone_1) were cultivated in mTeSR1 (Stem Cell Technologies) as standard medium and Cynomolgus monkey iPSCs (cips_54-1285_cFIB_Clone_8) in MT medium supplemented with 10 ng/ml ActivinA and 15 ng/ml FGF2.
For gene expression profiling, stem cells were detached with Accutase (Stem Cell Technologies) and plated in 12 well plates coated with Matrigel (BD Biosciences) in the respective standard medium supplemented with 10 μM Rock inhibitor Y-27632 (Sigma-Aldrich). In order to obtain enough RNA, monkey stem cells were seeded at 15000 cells/cm2 and human stem cells were seeded at 40000 cells/cm2 24 h prior to treatment. Thereafter stem cells were treated for 24 h with serial dilutions (1:5) of test items in fresh, pre-warmed medium in a concentration range from 0.64 nM till ˜10 μM. To stop the experiment, cells were lysed in QiaGen's lysis buffer RLT with beta-mercaptoethanol.
Human and Cynomolgus monkey mRNA expression was measured with customized primer and FAM fluorescently-labeled Universal Probe Library (UPL) probes from Roche or probes from Microsynth containing a 5′ FAM label and a 3′ terminal BlackHole Dark Quencher 1 (BHQ1). The sequences of the primer and FAM labeled probes are listed as follows:
For quantitative Real-Time-PCR, cells cultivated in a 12 well plate and treated with Roche-compounds for 24 h were lysed in 500 ul/well of QiaGen's lysis buffer RLT with beta-mercaptoethanol. Total RNA was extracted with the RNeasy Mini kit combined with DNase treatment on a solid support. RNA integrity was controlled by using Nanodrop absorption spectroscopy and microfluidic capillary array electrophoresis profiles from an Agilent Bioanalyzer
2100. Between 300 ng to 800 ng of total RNA were reverse transcribed with oligo-dT primer and spiked MS2 RNA at 10 ng/uL final concentration using the Transcriptor First Strand cDNA Synthesis Kit (Roche Applied Science #04379012001) following the manufacturer's recommended protocol. The quantitative PCR was performed on a LightCycler 480 qPCR machine using 67.5 ng total RNA derived cDNA as input in a 20 μl mixture containing 1× LightCycler 480 Probes Master, 0.4 μM forward and reverse primers, and 0.2 μM FAM labeled hydrolysis probe. The temperature program consisted of pre-incubation at 95° C. for 10 min, followed by 50 cycles of amplification (95° C. for 10 s, 60° C. for 30 s, 72° C. for 5 s). Negative control reactions were conducted in the absence of cDNA template to confirm absence of cDNA contamination in the master mix. Measurements of Ct (cycle threshold)-values were performed for each sample-mRNA combination. Using the 2-ΔΔCt method (Livak K J et al. Method. Methods. 2001; 25(4):402-8), the data are presented as the fold change in gene expression normalized to an endogenous reference gene and relative to the untreated control. To derive individual ΔCt values, the Ct value for each target mRNA of each sample was normalized to the Ct value of the endogenous reference mRNA of GAPDH (glyceraldehyde-3-phosphate dehydrogenase). The […] was calculated by subtracting the ΔCt value of the vehicle-control group from the respective ΔCt value of each treatment group. Resultant expression ratios (2-ΔΔCt) mirrored treatment-related mRNA expression changes versus vehicle-controls. […] The model to derive the IC50 assumes that the dose response curves has a standard slope, equal to a Hill slope (or slope factor) of −1.0. Model equation: Y=Bottom+(Top-Bottom)/(1+10^((X-Log IC50))); with Y being the response data and X being log 10 concentrations in μM.
On the technique in general: In qPCR the cycle at which signal appears reflects the starting amount.

With `Cc1cn2nc(-c3cc(=O)n4cc(N5CCNC6(CC6)C5)ccc4n3)cc(C)c2n1` [RO7034067, 7-(4,7-diazaspiro[2.5]octan-7-yl)-2-(2,8-dimethylimidazo[1,2-b]pyridazin-6-yl)pyrido[1,2-a]pyrimidin-4-one], the results for the “percentage of events in G1 phase, mean” value in the experiment on Cynomolgus monkey iPSCs (80 nM), in the experiment with Cynomolgus monkey iPSCs (400 nM) and in the experiment on Cynomolgus monkey iPSCs (2000 nM) were 33.8%, 30.3% and 25.3%, respectively. The “percentage of events in G2 phase, mean” value in the experiment on Cynomolgus monkey iPSCs (80 nM) is 52.2%; in the experiment with Cynomolgus monkey iPSCs (400 nM), 55.8%; with Cynomolgus monkey iPSCs (2000 nM) it was 61.3%. The “percentage of events in S phase, mean” value came out at 14.0% in the experiment with Cynomolgus monkey iPSCs (80 nM), 14.0% with Cynomolgus monkey iPSCs (400 nM) and 13.4% in the experiment on Cynomolgus monkey iPSCs (2000 nM). Also, the “effect on cell cycle” value in the experiment with Cynomolgus monkey iPSCs (monkey iPSCs, concentration-dependent) is reported as “cell cycle arrest in G2 phase”. In addition, the “Mean FOXM1B/C relative mRNA expression (2^-ΔΔCt vs control)” value is listed as 1.115 in experiment [1] (0.64 nM); 1.032 in experiment [1] (3.2 nM); 0.898 in experiment [1] (16 nM); 0.748 in experiment [1] (80 nM); 0.178 in experiment [1] (400 nM); 0.185 in experiment [1] (2000 nM). Moreover, the “Mean FOXM1B/C relative mRNA expression (2^-ΔΔCt vs control)” value in experiment [1] (10000 nM) is given as 0.102. In addition, in experiment [1] (iPSC, read-out: IC50 on expression levels of FOXM1B/C), the IC50 was 114 nM.
